Measurements taken from publication PMC10224329, “Design, Synthesis, and Antiproliferative Activity of Benzopyran-4-One-Isoxazole Hybrid Compounds” (Molecules, 2023).

Tests used:
[1] = tested on: panel of cancer cell lines (CCRF-CEM, SKOV-3, MDA-MB-231, PC-3, DU-145, iSLK); test: MTS cell viability assay, summary over the cancer cell line panel; assay type: cell-based; conditions: Homo sapiens
Protocol: All the 14 hybrid compounds synthesized via Scheme 1, along with the intermediates and starting compounds, were tested in vitro for their cytotoxicity against a panel of 6 human cancer cell lines. This panel involved human leukemia carcinoma (CCRF-CEM), human ovarian adenocarcinoma (SKOV-3), human breast tumor (MDA-MB-231), human prostate cancer (PC-3), androgen-independent human prostate cancer (DU-145), and human renal carcinoma (iSLK) cell lines. The compounds were tested at a concentration of 25 μM for incubation periods of 24 and 72 h. Standard anticancer drug doxorubicin at a concentration of 5 μM and DMSO were used as controls in all the cell assays. The antiproliferative profile of benzopyran-4-one-isoxazole conjugates is shown in Figure 2 (cf. Supplementary Materials for the data obtained for intermediates and starting materials Figure S28.1–S28.6, page no. 71–76).
Cell viability assays were performed using the MTS protocol. The in vitro cytotoxicity of the conjugates was evaluated using six human cancer cell lines, one human normal kidney cell line, and one mammalian normal kidney cell line, which included human leukemia carcinoma cell lines (CCRF-CEM), human ovarian adenocarcinoma cell lines (SKOV-3), human breast tumor cell lines (MDA-MB-231), human prostate cancer cell lines (PC-3), androgen-independent human prostate cancer cell lines (DU-145), human renal carcinoma (iSLK), human embryonic kidney cell lines (HEK-293), and normal mammalian kidney cell line (LLCPK) to determine the toxicity of the synthesized conjugates. CCRF-CEM cells were seeded at 50,000 cells in 0.1 mL per well in 96-well plates, and in the case of SKOV-3, MDA-MB-231, PC-3, DU-145, HEK-293, and LLCPK cell lines, the cells were seeded at 5000 cells in 0.1 mL per well in 96-well plates. The CCRF-CEM cells were seeded in RPMI-1640 media containing 2mM L-glutamine, 1.5 g/L sodium bicarbonate, supplemented with fetal bovine serum (FBS) 10% media, SKOV-3, MDA-MB-231, and LLCPK cells were seeded in MEME media with Earle’s salts and sodium bicarbonate, without L-glutamine, supplemented with fetal bovine serum (FBS) 10%, PC-3 cells were seeded in DMEM:F-12 containing 1:1 mixture with L-glutamine with HEPES, supplemented with fetal bovine serum (FBS) 10%, and DU-145 and HEK-293 cells were seeded in DMEM containing 4500 mg/L glucose, L-glutamine, and sodium bicarbonate, without sodium pyruvate, supplemented with FBS (10%), 24 h prior to the experiment. The compounds at a final concentration of 25 µM (higher concentration stock solution prepared in DMSO) were added to each well in triplicate and incubated for 24 and 72 h at 37 °C in a humidified atmosphere (95% air and 5% CO2). The cell viability was then determined by measuring the absorbance of the formazan product at 490 nm using a microplate reader using a SpectraMax M2 microplate spectrophotometer, Molecular Devices, San Jose, CA, USA. The percentage of cell survival was calculated as [(OD value of cells treated with the test mixture of compounds) − (OD value of culture medium)]/[(OD value of control cells) − (OD value of culture medium)] × 100%. IC50 values of compounds were calculated using non-linear regression analysis in GraphPad Prism (Boston, MA, USA).

[2] = tested on: MDA-MB-231 cells; test: Annexin V-FITC/PI apoptosis assay by flow cytometry; assay type: cell-based, human
Protocol: In accordance with the MTS assay, compound 5a had promising antiproliferative action. Therefore, we attempted to study the mechanism triggering cell death. […] MDA-MB-231 cells were treated with 5 μM of compound 5a and Dox (5 μM) as a positive control and incubated for 72 h, then double-stained carefully by membrane-linked protein Annexin-V fluorescein isothiocyanate (FITC) and propidium iodide (PI) for flow cytometry analysis. Normally, in the early stages of apoptosis, phosphatidylserine flips from the inner cell membrane to the surface of the cell membrane. […] PI is a nucleic acid dye that can only cross the membrane of advanced apoptosis and necrotic cells and redden the nucleus. Consequently, when the treated cells are double stained by the two fluorescent dyes, early and late apoptosis and necrotic cells can be clearly distinguished. […] These findings illustrated that compound 5a mainly leads to the early apoptosis of MDA-MB-231 cells.
The assay was detected using a commercially available kit (FITC Annexin V Apoptosis Detection Kit II, BD Biosciences, San Jose, CA, USA) per the manufacturer’s instructions. Briefly, MDA-MB-231 cells were seeded in 6-well plates at a concentration of 1 × 10^6 cells/well for 24 h; after that, cells were treated with 5a (5 µM) for 72 h. Dox (5 µM) was used as a positive control. After the treatment period, cells were washed with cold phosphate-buffered saline (PBS) twice. The cells were collected after trypsin treatment and centrifugated to get a pellet, and a binding buffer (1X) was used to resuspend the cells. Annexin V (5 μL) and propidium iodide (PI) (5 μL) were mixed with 100 μL of the suspended cells (1 × 10^6 cells/mL), followed by 15 min incubation at room temperature in the dark. The mixture was diluted by adding 400 μL of 1× binding buffer, and the cells were analyzed using flow cytometry, FACS Verse (BD Biosciences, USA). The experiment was repeated three times independently.

For `Cc1noc(C)c1C(=O)OCc1coc2ccccc2c1=O` [Compound 5a, (4-Oxo-4H-1-benzopyran-3-yl)methyl 3,5-dimethylisoxazole-4-carboxylate], which inhibition at 25 µM ([1]; 25 μM, 72 h, range over six cancer cell lines, read-out: percentage of inhibition (range over the cancer cell lines)) is on record?
The inhibition at 25 µM was 44 to 81%.

And the IC50 ([1]; range over CCRF-CEM, MDA-MB-231, PC3, DU-145, read-out: IC50 against all the cancer cell lines (range))?
Its IC50 is 5.6 to 17.8 µM.

And the “induced apoptosis in MDA-MB-231” value ([2]; 5 μM concentration, compared to untreated cells)?
Its value is 50.8%.

What about the “Early Apoptosis” value ([2]; MDA-MB-231, 5 μM, 72 h) of the same molecule?
Its value is 47.52%.

What about the “Late Apoptosis” value ([2]; MDA-MB-231, 5 μM, 72 h) of the same molecule?
Its value is 3.28%.
